Results reported in US20120141435A1, “USE OF OLIVE LEAF EXTRACTS IN A PHARMACEUTICAL COMPOSITION FOR INDUCING ANGIOGENESIS AND VASCULOGENESIS” (SANIDAD Y RESIDENCIAS 21, S.A., priority 2009, published 2012).

Tested on: 6 mm excisional wounds on the back of db/db mice
Assay: Excisional wound healing in db/db mice (digital planimetry)
Assay type: in vivo, mouse
Conditions: topical on days 0, 2, 4, 6, 8, 10e-2, 10e-5, 10e-7 m oleuropein, treated (right) and untreated (left) wound, vs PBS
Description: Female db/db mice (BKS.Cg-m+/+Lepr^db) aged 10 to 12 weeks were used. They were obtained through Charles River Laboratories (Spain), the average weight of the animals upon reception was 35.64 g. Throughout the entire study, the animals were kept in animal houses particularly designed for allowing control of the animals' environment, such as relative humidity (30-70%), temperature (22±2° C.), air pressure, number of renewals and light period ( 12/12 hours of light/darkness). Access to water was “ad libitum” and the diet was a standard dry pellet diet for rats supplied by PanLab (Barcelona, Spain). After the acclimatization period, the mice were randomly distributed into the different study groups. […]
On day 0 of the experiment, two 6 mm excisional wounds were made on the back of every mouse under aseptic conditions and using surgical instruments. […] The wound healing process was tracked and evaluated throughout the experiment (see FIG. 3). […]
In order to track the wound healing, a digital planimetry method was used whereby the area of every wound was quantified. The inter-group differences have been determined by means of a two-way ANOVA statistical analysis followed by a Bonferroni post-hoc analysis. […]

With VEGF as the substance, how does the “wound healing (wound area)” value read?
Its value is “healing effect”.
